Assay results as given in article PMC4459817, “Vasculotide reduces endothelial permeability and tumor cell extravasation in the absence of binding to or agonistic activation of Tie2” (EMBO Molecular Medicine, 2015).

T1: mouse Tie2-Fc (Fc-conjugated extracellular domain of Tie2) (mouse, UniProt Q02858 23-746)
T1 chain: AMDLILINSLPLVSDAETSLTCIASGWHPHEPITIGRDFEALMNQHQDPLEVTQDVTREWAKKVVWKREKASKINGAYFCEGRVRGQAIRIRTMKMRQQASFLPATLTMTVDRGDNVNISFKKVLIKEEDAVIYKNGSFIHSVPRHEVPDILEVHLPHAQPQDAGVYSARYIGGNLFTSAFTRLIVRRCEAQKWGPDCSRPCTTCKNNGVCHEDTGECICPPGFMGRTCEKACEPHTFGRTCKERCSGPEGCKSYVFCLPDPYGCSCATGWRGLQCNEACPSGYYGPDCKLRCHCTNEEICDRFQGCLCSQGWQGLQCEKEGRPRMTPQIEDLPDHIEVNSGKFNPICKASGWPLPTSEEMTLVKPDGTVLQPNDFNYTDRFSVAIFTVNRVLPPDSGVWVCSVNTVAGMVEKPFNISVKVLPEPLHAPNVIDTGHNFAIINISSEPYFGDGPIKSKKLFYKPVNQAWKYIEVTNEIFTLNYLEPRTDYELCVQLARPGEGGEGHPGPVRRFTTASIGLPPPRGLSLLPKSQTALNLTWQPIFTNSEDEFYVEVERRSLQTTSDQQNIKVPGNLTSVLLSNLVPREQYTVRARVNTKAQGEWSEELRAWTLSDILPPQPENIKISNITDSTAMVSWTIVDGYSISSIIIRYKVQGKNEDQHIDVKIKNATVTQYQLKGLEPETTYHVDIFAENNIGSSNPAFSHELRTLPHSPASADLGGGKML

B1: recombinant human Ang1 (rhAng1) (ligand, UniProt Q15389 16-498, looked up)
chain: HIGCSNQRRSPENSGRRYNRIQHGQCAYTFILPEHDGNCRESTTDQYNTNALQRDAPHVEPDFSSQKLQHLEHVMENYTQWLQKLENYIVENMKSEMAQIQQNAVQNHTATMLEIGTSLLSQTAEQTRKLTDVETQVLNQTSRLEIQLLENSLSTYKLEKQLLQQTNEILKIHEKNSLLEHKILEMEGKHKEELDTLKEEKENLQGLVTRQTYIIQELEKQLNRATTNNSVLQKQQLELMDTVHNLVNLCTKEGVLLKGGKREEEKPFRDCADVYQAGFNKSGIYTIYINNMPEPKKVFCNMDVNGGGWTVIQHREDGSLDFQRGWKEYKMGFGNPSGEYWLGNEFIFAITSQRQYMLRIELMDWEGNRAYSQYDRFHIGNEKQNYRLYLKGHTGTAGKQSSLILHGADFSTKDADNDNCMCKCALMLTGGWWFDACGPSNLNGMFYTAGQNHGKLNGIKWHYFKGPSYSLRSTTMMIRPLDF
notes: angiopoietin-1, human, recombinant; also called angiopoietin-1; source: bought: R&D Systems (named for the Boyden chamber experiments)

How the values were obtained:
[1] = test system: advanced metastatic breast cancer; conditions: ref Yardley et al, 2012; cited from earlier work
From the text: Another possible explanation for the apparent insensitivity of MBC to TKI treatments is that the growth of secondary tumors post-metastatic colonization of the lung/liver may still be susceptible to the intended anti-angiogenic inhibition, but that these growth-inhibitory benefits may be diluted by concurrent unintended drug effects that promote tumor spread.

[2] = test system: advanced metastatic breast cancer; conditions: monotherapy or combined with chemotherapies; ref Ebos & Kerbel, 2011; Mackey et al, 2012; cited from earlier work
From the text: These clinical results were recently replicated in a preclinical model of postsurgical advanced MBC (Guerin et al, [2013]). As discussed previously (Guerin et al, [2013]), primary and secondary tumors may have divergent responses to anti-angiogenic ...

[3] = molecular target: T2, human Tie2-Fc (Fc-conjugated extracellular domain of Tie2) (human, UniProt Q02763 23-748); assay: pull-down; purified human or mouse Tie2-Fc coupled to protein A sepharose beads; input ligand (rhAng1 or VT) incubated with the beads; bound and unbound fractions compared; beads only as control; conditions: both partners purified
T2 construct: Tie2 receptor tyrosine kinase, human, extracellular domain; the supplementary Materials and Methods may tell them; also called hTie2-Fc; hTie2; source: purified

[4] = molecular target: T3, mouse Tie2-Fc (Fc-conjugated extracellular domain of Tie2) (mouse, UniProt Q02858 23-746); assay: as above; conditions: both partners purified
T3 construct: Tie2 receptor tyrosine kinase, mouse, extracellular domain; the supplementary Materials and Methods may tell them; also called mTie2-Fc; mTie2; source: purified

[5] = molecular target: T1, mouse Tie2-Fc (Fc-conjugated …); assay: SPR

| Molecule | response rate, distally disseminated visceral metastatic disease [1] [%] | response rate, locoregionally growing superficial metastatic disease [1] [%] | phase III clinical trial outcome [2] | binding result [3] | binding result [4] | Kd [5] [nM] |
| --- | --- | --- | --- | --- | --- | --- |
| CCN(CC)CCNC(=O)c1c(C)[nH]c(/C=C2\C(=O)Nc3ccc(F)cc32)c1C [sunitinib, reference compound] | 9 | 20 | repeatedly failed in multiple phase III clinical trials |  |  |  |
| B1 |  |  |  | binds | binds | 0.237 |
